Test results from paper PMC8068288, “Novel Thiol Containing Hybrid Antioxidant-Nitric Oxide Donor Small Molecules for Treatment of Glaucoma” (Antioxidants, 2021).

Experiments:
NTM-5 cells [1] = experiment: In vitro peroxynitrite measurement assay; format: cell-based, human; details: 0.1 µM and 1 mM, with or without TBHP 350 µM
Method: Human transformed trabecular meshwork (NTM-5) cells (20,000 cells/well/90 µL) were seeded in 96-well plates (Griener bio-one black plate) and stained with 10 µL of 10X Peroxynitrite Sensor Green solution for 1 h. […] SIN-1 was used as a positive control. Detection of peroxynitrite was done using Peroxynitrite Assay Kit (abcam-ab233468-cell based). Fluorescence signals were measured using a microplate reader (Cytation5) at Ex/Em = 485/530 nm at time intervals (15 min, 30 min, 1 h, 2 h, and 3 h). The experiments were done in duplicates.

NTM-5 cells [2] = experiment: Total nitrite release by Griess assay in NTM-5 cell supernatant; format: cell-based, human
Method: The total nitrite released from the compounds in buffer and in cell supernatant were measured by Griess assay as reported by us previously. In brief, compounds (SA-2, SA-9, and SA-10) in buffer at different concentrations (1 mM, 500 µM, 250 µM 125 µM, 62.5 µM, 31.25 µM, and 15.625 µM) or supernatant collected from Human transformed trabecular meshwork (NTM-5) cells were added to a 96-well plate. 1% Sulphanilamide in 5% phosphoric acid and 0.1% N-1-napthylethylenediamine dihydrochloride (NED) were added to experimental samples sequentially at room temperature and away from light. SIN-1 was used as reference standard. UV Absorbances (Cytation 5) were measured at specific timepoints (0, 5 min, 10 min, 15 min, 30 min, 24 h, and 28 h) at 520 nm.
The experiments were repeated twice with four technical replicates.

NTM-5 cells [3] = experiment: In vitro cytoprotection assay against TBHP (MTT); format: cell-based; details: Homo sapiens, TBHP 350 µM, read-out: EC50 of increase in cell viability (cytoprotection)
Method: After 24 h of treatment, cell proliferation was measured using MTT assay. All the experiments are done in duplicate with four experimental replicates.

Compound: Cl.[NH-]c1c[n+](C2CCSCC2)no1 [SA-9, (3-(tetrahydro-2H-thiopyran-4-yl)-1,2,3-oxadiazol-3-ium-5-yl)amide hydrochloride]
- ONOO− radical formation (NTM-5 cells [1]): significantly less amount of radicals
- NO released in NTM-5 cell supernatants (NTM-5 cells [2]; 28 h at 37 °C): dose dependently
- start of NO release (NTM-5 cells [2]; buffer solution and TM cells): > 24 h
- EC50 (NTM-5 cells [3]): 1000 nM
